In brackets after ≈: the same amount, converted by molar mass. Several values for one entry are separate records, joined by “and”; a condition that tells them apart may be missing. Equal values may be shown once. Read-outs that look alike come from different tables or passages of the source.
Columns and labels:
[1] = tested on: Mycobacterium tuberculosis H37 Rv; experiment: Antibacterial activity assay (MIC, broth dilution); assay type: cell-based; details: H37RV, 168 h, read-out: MIC, TB
[2] = tested on: MRSA (ATCC 35391) biofilm; experiment: Calgary Biofilm Device anti-biofilm activity; assay type: cell-based, Staphylococcus aureus; details: Staphylococcus aureus, triplicate runs listed singly; for MIC: read-out: MBIC = Minimum Biofilm Inhibitory Concentration
[3] = tested on: Propionibacterium acnes ATCC 6919; experiment: Antibacterial activity assay (MIC, broth dilution); assay type: cell-based; details: Cutibacterium acnes
[4] = tested on: Bacillus subtilis ATCC 23857; experiment: Antibacterial activity assay (MIC, broth dilution); assay type: cell-based
[5] = tested on: Streptococcus pyogenes ATCC 700294; experiment: Antibacterial activity assay (MIC, broth dilution); assay type: cell-based
[6] = tested on: MSSA (ATCC 25293) biofilm; experiment: Calgary Biofilm Device anti-biofilm activity; assay type: cell-based; details: Staphylococcus aureus; for MBC: read-out: MBEC = Minimum Biofilm Eradication Concentration; for MIC: read-out: MBIC = Minimum Biofilm Inhibitory Concentration
[7] = tested on: Methicillin Resistant Staphylococcus aureus ATCC 33591; experiment: Antibacterial activity assay (MIC, broth dilution); assay type: cell-based; details: ATCC 33591 / MRSA, read-out: MIC, MRSA
[8] = tested on: Enterococcus faecalis ATCC 33186; experiment: Antibacterial activity assay (MIC, broth dilution); assay type: cell-based
[9] = tested on: S. epidermidis (RP62A) biofilm; experiment: Calgary Biofilm Device anti-biofilm activity; assay type: cell-based; details: Staphylococcus epidermidis, S. epidermidis biofilm, triplicate runs listed singly; for MBC: read-out: MBEC = Minimum Biofilm Eradication Concentration; for MIC: read-out: MBIC = Minimum Biofilm Inhibitory Concentration
[10] = tested on: clinical isolates of MRSA (methicillin resistant S. aureus); assay type: cell-based
[11] = tested on: clinical isolates of MSSA (methicillin sensitive S. aureus); assay type: cell-based
Cytotoxicity assay (MTT) = assay type: cell-based, monkey; details: monkey, Vero monkey kidney cells (ATCC CCL-81); Vero cells, 72 hours, MTT; read-out: IC50 (Cytotoxicity): Concentration which reduces viability of Vero kidney cells by 50%
How it was run: (§1)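 Vero cells seeded ~10^6 cells/mL and pre-incubated 18 h, then exposed to compounds at 400-0.024 μg/mL for 72 h at 37 °C, 5% CO2; 0.1% Triton X-100 as full-kill control. MTT added 3 h, formazan read at 570 nm after lysis; IC50 from percent activity vs log10 concentration curves.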

[12] = tested on: Vero monkey kidney cell line (ATCC, CCL-81); experiment: Cytotoxicity assay (MTT); assay type: cell-based; details: IC50 divided by MIC against S. aureus 8325
How it was run: as §1

[13] = tested on: Methicillin sensitive Staphylococcus aureus 8325 ATCC 35556; experiment: Antibacterial activity assay (MIC, broth dilution); assay type: cell-based; details: ATCC 35556 / MSSA, read-out: MIC, MSSA
[14] = tested on: Bacillus anthracis Sterne 34F2; experiment: microbe, parasite or virus in culture; assay type: cell-based; details: STERNE34F2, read-out: MIC, BA
[15] = tested on: Streptococcus pneumoniae DAW30EC; experiment: Antibacterial activity assay (MIC, broth dilution); assay type: cell-based; details: read-out: MIC, SPn
[16] = tested on: methicillin-sensitive S. aureus ATCC 29213; experiment: Superficial skin infection model in mice; assay type: in vivo, Balb/c mice; details: topical, twice daily for three days, bacteria in lesions on day 5, placebo 8.15 +/− 0.37
Description: Compounds of the invention were tested for the ability to treat skin infections utilizing an established animal model of skin infection. The superficial skin infection model used in this study was previously developed by Kugelberg et al, “Establishment of a Superficial Skin Infection Model in Mice using Staphylococcus aureus and Streptococcus pyogenes”, Antimicrob. Agents Chemother., 49(8):3435-3441 (2005).
Superficial infections in Balb/c mice (male) were caused by first removing hair from the backs of mice with an electric shaver, followed by dry shaving with a razor and tape stripping with Tensoplast® (BSN Medical Inc., Charlotte, N.C.) adhesive bandage to remove the epidermis, followed by infection with a 5 μl bacterial suspension containing about 10^7 bacterial cells of methicillin-sensitive S. aureus ATCC 29213, a strain from a previous isolate from a human wound infection and used in other murine infection studies. After 4 hours of infection, treatment was started by administering 45-50 mg of ointment containing (i) vehicle hydrophilic petrolatum (placebo) (ii) 2% w/w mupirocin ointment (Bactroban®, GlaxoSmithKline plc., United Kingdom) in vehicle or (iii) 2% tetramic acid analogue of the invention (13b) in vehicle, (iv) 10% tetramic acid analogue of the invention (13b) in vehicle, (v) 2% tetramic acid analogue of the invention (13l) in vehicle, or (vi) 10% tetramic acid analogue of the invention (13l) in vehicle. Treatment was continued for three days with drug application twice daily at 8 hour intervals. On day 5, mice were sacrificed and the numbers of bacteria in lesions were enumerated.
This conclusion stems from statistical analysis of the resulting means by one way ANOVA followed by Tukey's test at P<0.01 with Placebo as the control group. Therefore, the tetramic acid analogues of the invention have the potential to be used clinically for the treatment of skin infections, such as those caused by Staphylococcus aureus.

Staphylococcus aureus = experiment: Selection of single-step resistant mutants; assay type: cell-based; details: from a population of 10^10 cells
[17] = MSSA biofilm, triplicate runs listed singly

In the case of `C/C(O)=C1\C(=O)[C@H](CC(C)C)N(CC2=CCC3CC2C3(C)C)C1=O` (stereo partly drawn) [Compound 13l, (5S,Z)-1-((6,6-dimethylbicyclo[3.1.1]hept-2-en-2-yl)methyl)-3-(1-hydroxyethylidene)-5-isobutylpyrrolidine-2,4-dione], the MIC ([1]; Mycobacterium tuberculosis) is reported as 100 µg/mL (≈ 302 µM), the MBC ([2]; MRSA biofilm, read-out: MBEC = Minimum Biofilm Eradication Concentration) is reported as > 400 µg/mL and the MIC ([2]; MRSA biofilm) is reported as 1.6 µg/mL (≈ 4.83 µM). The MIC ([3]; ATCC6919, read-out: MIC, PA) was 0.8 µg/mL (≈ 2.41 µM), the MIC ([4]; Bacillus subtilis, ATCC23857, read-out: MIC, BS) was 1.6 µg/mL (≈ 4.83 µM) and the MIC ([5]; Streptococcus pyogenes, ATCC700294, read-out: MIC, SP) was 25 µg/mL (≈ 75.4 µM). For the same compound, the MBC [6, 17] was > 400 µg/mL, the MIC [6] was 3.12 µg/mL (≈ 9.41 µM) and the MIC [7] was 1.6 µg/mL (≈ 4.83 µM). The MIC ([8]; Enterococcus faecalis, ATCC33186, read-out: MIC, EF) was 1.6 µg/mL (≈ 4.83 µM), the MBC [9] was > 400 µg/mL and the MIC [9] was 1.6 µg/mL (≈ 4.83 µM). The “Antibiotic MIC” value ([10]; isolate MRSA-1) was 3.12 µg/mL, the “Antibiotic MIC” value ([10]; isolate MRSA-2) was 3.12 µg/mL and the “Antibiotic MIC” value ([10]; isolate MRSA-3) was 3.12 µg/mL. For the same compound, the “Antibiotic MIC” value ([10]; isolate MRSA-4) was 3.12 µg/mL, the “Antibiotic MIC” value ([10]; isolate MRSA-5) was 3.12 µg/mL and the “Antibiotic MIC” value ([10]; isolate MRSA-6) was 3.12 µg/mL. For the same compound, the “Antibiotic MIC” value ([10]; isolate MRSA-7) was 3.12 µg/mL, the “Antibiotic MIC” value ([10]; isolate MRSA-8) was 0.4 µg/mL and the “Antibiotic MIC” value ([10]; isolate MRSA-9) was 3.12 µg/mL. The “Antibiotic MIC” value ([10]; isolate MRSA-10) was 3.12 µg/mL, the “Antibiotic MIC” value [11] was 3.2 µg/mL and 1.6 µg/mL and the IC50 at 72 h (Cytotoxicity assay (MTT)) was 35.4 µg/mL. The “IC50/MIC = Selectivity (therapeutic) index” value [12] was 22.1, the MIC ([13]; Staphylococcus aureus) was 1.6 µg/mL (≈ 4.83 µM) and the MIC [14] was 0.8 µg/mL (≈ 2.41 µM). For the same compound, the MIC ([15]; Streptococcus pneumoniae, DAW30EC) was 50 µg/mL (≈ 151 µM), the “Mean Bacterial Count (log10) +/− SD” value ([16]; 2% ointment) was 7.67 +/− 0.21 log10 and the “Mean Bacterial Count (log10) +/− SD” value ([16]; 10% ointment) was 6.51 +/− 0.67 log10.

`CCCCCCCCCCN1C(=O)/C(=C(/C)O)C(=O)[C@@H]1CC(C)C` [Compound 13b, (S,Z)-1-decyl-3-(1-hydroxyethylidene)-5-isobutylpyrrolidine-2,4-dione] gave an MIC ([1]; Mycobacterium tuberculosis H37 Rv, […]) of 12.5 µg/mL (≈ 37 µM), an MIC ([2]; MRSA biofilm) of 0.8 µg/mL (≈ 2.37 µM) and an MBC ([2]; read-out: MBEC = Minimum Biofilm Eradication Concentration, MRSA biofilm) of 6.25 µg/mL (≈ 18.5 µM). The MIC ([3]; ATCC6919, Propionibacterium acnes ATCC 6919, read-out: MIC, PA) was 0.8 µg/mL (≈ 2.37 µM), the “single-step mutants resistant to the compound” value (Staphylococcus aureus) was “could not be obtained” and the MIC ([4]; ATCC23857, Bacillus subtilis ATCC 23857, read-out: MIC, BS) was 0.8 µg/mL (≈ 2.37 µM). The MIC ([5]; ATCC700294, Streptococcus pyogenes ATCC 700294, read-out: MIC, SP) was 50 µg/mL (≈ 148 µM), the MBC [6, 17] was 100 µg/mL (≈ 296 µM) and the MIC [6, 17] was 0.8 µg/mL (≈ 2.37 µM). For the same compound, the MIC [7] was 0.8 µg/mL (≈ 2.37 µM), the MIC ([8]; ATCC33186, Enterococcus faecalis ATCC 33186, read-out: MIC, EF) was 1.6 µg/mL (≈ 4.74 µM) and the MBC [9] was 50 µg/mL (≈ 148 µM). The MIC [9] was 0.4 µg/mL (≈ 1.19 µM), the “Antibiotic MIC” value ([10]; isolate MRSA-1) was 0.8 µg/mL and the “Antibiotic MIC” value ([10]; isolate MRSA-2) was 0.8 µg/mL. For the same compound, the “Antibiotic MIC” value ([10]; isolate MRSA-3) was 0.8 µg/mL, the “Antibiotic MIC” value ([10]; isolate MRSA-4) was 0.8 µg/mL and the “Antibiotic MIC” value ([10]; isolate MRSA-5) was 0.8 µg/mL. For the same compound, the “Antibiotic MIC” value ([10]; isolate MRSA-6) was 1.6 µg/mL, the “Antibiotic MIC” value ([10]; isolate MRSA-7) was 0.8 µg/mL and the “Antibiotic MIC” value ([10]; isolate MRSA-8) was 0.4 µg/mL. The “Antibiotic MIC” value ([10]; isolate MRSA-9) was 0.8 µg/mL, the “Antibiotic MIC” value ([10]; isolate MRSA-10) was 0.8 µg/mL and the “Antibiotic MIC” value ([11]; isolate MSSA-11) was 0.8 µg/mL. For the same compound, the “Antibiotic MIC” value ([11]; isolate MSSA-12) was 0.4 µg/mL, the “Antibiotic MIC” value ([11]; isolate MSSA-13) was 0.4 µg/mL and the “Antibiotic MIC” value ([11]; isolate MSSA-14) was 0.4 µg/mL. The “Antibiotic MIC” value ([11]; isolate MSSA-15) was 0.4 µg/mL, the “Antibiotic MIC” value ([11]; isolate MSSA-16) was 0.4 µg/mL and the “Antibiotic MIC” value ([11]; isolate MSSA-17) was 0.4 µg/mL. The “Antibiotic MIC” value ([11]; isolate MSSA-18) was 0.4 µg/mL, the “Antibiotic MIC” value ([11]; isolate MSSA-19) was 0.4 µg/mL and the “Antibiotic MIC” value ([11]; isolate MSSA-20) was 0.8 µg/mL. The IC50 at 72 h (Cytotoxicity assay (MTT)) was 14.7 µg/mL, the “IC50/MIC = Selectivity (therapeutic) index” value [12] was 36.8 and the MIC ([13]; Methicillin sensitive Staphylococcus aureus 8325 ATCC 35556) was 0.4 µg/mL (≈ 1.19 µM). The MIC [14] was 0.8 µg/mL (≈ 2.37 µM), the MIC ([15]; Streptococcus pneumoniae DAW30EC) was 6.25 µg/mL (≈ 18.5 µM) and the “Mean Bacterial Count (log10) +/− SD” value ([16]; 2% ointment) was 8.08 +/− 0.28 log10. The “Mean Bacterial Count (log10) +/− SD” value ([16]; 10% ointment) was 6.47 +/− 0.58 log10.

Reference: patent publication US8552208B2, “Analogs of tetramic acid” (University of Tennesseee Research Foundation, priority 2007, dated 2013)
